The test has as its system parathyroid hormone stimulated bone resorption in mouse calvaria. Description: parathyroid hormone stimulated bone resorption inhibition activity in vitro in mouse calvaria (antiresorptive activity). It counts as cell-based. The following applies: PTH stimulated.

One may read the inhibition as the change of the read-out against control, counted positive when it falls. Read a high inhibition as a strong effect. `CCN(CC)P(=O)(O)C(Cl)(Cl)P(=O)(O)N(CC)CC` [(dichloromethylene)bisphosphonic acid P,P'-bis(diethylamide)]: 100 µM produced 38% inhibition.
Take `CCN(CC)P(=O)(OC(C)C)C(Cl)(Cl)P(=O)(O)O` (centres unmarked) [(dichloromethylene)bisphosphonic acid P-monoisopropyl ester P-mono(diethylamide)]: the “Antiresorptive activity, Inhibition of resorption (%)” value (100 μM) is recorded as 44%.
As for `CCN(CC)P(=O)(O)C(Cl)(Cl)P(=O)(O)O` [(dichloromethylene)bisphosphonic acid mono(diethylamide)], the inhibition at 100 µM was 43%.
Still for that read-out and setting: next, `CCN(CC)P(=O)(O)C(Cl)(Cl)P(=O)(N(CC)CC)N(CC)CC` [(dichloromethylene)bisphosphonic acid tris(diethylamide)]: 44%.
Still for that read-out and setting: next, `O=P(O)(O)C(Cl)(Cl)P(=O)(O)O` [Clodronate, reference compound]: 43%.
